The values that follow come from patent publication US20180369195A1, “COMBINATION THERAPY FOR TREATMENT OF MELANOMA” (The Regents of the University of California, priority 2015, published 2018).

Assay type in all cases: cell-based, human
One assay deals with β-catenin. The assay is described as follows: Western blot of β-catenin. The following applies: G361, SK-MEL-2 cells pre-treated 3 hours with GSK3β inhibitor, then 20 μM 1-benzyl I3C 24 hours. From the text: The western blots employed the following primary antibodies: mouse anti-MITF-M (Thermo-scientific), mouse anti-HSP 90 (BD Biosciences), mouse anti-CDK2, rabbit anti-CDK4, rabbit anti-CDK-6, mouse anti-rabbit BRAF, goat anti-LEF-1, rabbit anti-AXIN, mouse anti-BCL2, (Santa Cruz), rabbit anti-P21, mouse anti-Cyclin D1, rabbit anti-MEK-p, rabbit anti-MEK1/2, rabbit anti-GSK3β rabbit anti-LRP6, rabbit anti-LRP6-phospho (Cell signaling), mouse anti-β-catenin (Invitrogen).

For a further assay, the system named is CDK4. In words: Western blot of CDK4. Particulars: G-361 cells, 48 hours; 200 μM I3C, 10 μM Vemurafenib or 10 μM U0126. The procedure:
(§1) Western Blot analyses of samples electrophoretically fractionated on 12% acrylamide gels were carried out as previously described (Wagle et al., J. Clin. Oncol. 2011. 29(22):3085-3096; Nguyen et al., Chem. Biol. Interact. 2010. 186(3):255-266). Enhanced chemiluminescence (ECL) Lightening reagents were used to visualize the primary antibody bound protein bands in nitrocellulose membranes and the results captured on ECL Autoradiography Film (GE Healthcare, Piscataway, N.J.). The western blots employed the following primary antibodies: mouse anti-MITF-M (Thermo-scientific), mouse anti-HSP 90 (BD Biosciences), mouse anti-CDK2, rabbit anti-CDK4, rabbit anti-CDK-6, mouse anti-rabbit BRAF, goat anti-LEF-1, rabbit anti-AXIN, mouse anti-BCL2, (Santa Cruz), rabbit anti-P21, mouse anti-Cyclin D1, rabbit anti-MEK-p, rabbit anti-MEK1/2, rabbit anti-GSK3β rabbit anti-LRP6, rabbit anti-LRP6-phospho (Cell signaling), mouse anti-β-catenin (Invitrogen).
On the technique in general: Immunoblotting shows a protein as a band on a membrane.

The subject of another assay is MITF-M. In words: MITF-M protein levels in cultured melanoma cells (western blot, immunofluorescence). The following applies: for MITF-M protein levels (western blot): G-361 cells, 48 hours, 200 μM I3C, 10 μM Vemurafenib or 10 μM U0126. The procedure:
as §1

The test system of the next assay is phosphorylated Erk/MAPK. In words: Western blot of phosphorylated Erk/MAPK. Particulars: G-361 cells, 48 hours; 200 μM I3C, 10 μM Vemurafenib or 10 μM U0126.
A further assay relates to phosphorylated MEK. The assay is described as follows: Western blot of phosphorylated MEK. The following applies: G361 and DM738 cells, 10 μM Vemurafenib, 24 hours.
For the next assay, the system named is SK-MEL-2 cells. The assay is described as follows: CCK-8 proliferation assay, SK-MEL-2. The following applies: 48 hours. The procedure: […] Cells were treated with 20 μM 1-benzyl I3C every 24 hours for 72 hours and harvested at 24, 48 and 72 hours for western blot and flow cytometric analysis. Cells were treated with 20 μM LiCl or 10 μM BIO for 48 hours before harvesting them for western blots.
Subsequently inhibition of proliferation was assessed using Cell counting Kit-8 (Dojindo) as per the protocol in the user's manual. Briefly, 50 μl of the CCK-8 solution was added to each well along with 450 μl media and incubated for 2-3 hours. The absorbance was read at 450 nm and % inhibition was calculated for each condition standardizing DMSO to zero using the formula: [(100−Value of treatment/Value of DMSO treated control)×100]
(In general: Formazan colour is commonly taken as a measure of viable cells.)

Method for phosphorylated Erk/MAPK: (§2) Western Blot analyses of samples electrophoretically fractionated on 12% acrylamide gels were carried out as previously described (Wagle et al., J. Clin. Oncol. 2011. 29(22):3085-3096; Nguyen et al., Chem. Biol. Interact. 2010. 186(3):255-266). […] The western blots employed the following primary antibodies: mouse anti-MITF-M (Thermo-scientific), mouse anti-HSP 90 (BD Biosciences), mouse anti-CDK2, rabbit anti-CDK4, rabbit anti-CDK-6, mouse anti-rabbit BRAF, goat anti-LEF-1, rabbit anti-AXIN, mouse anti-BCL2, (Santa Cruz), rabbit anti-P21, mouse anti-Cyclin D1, rabbit anti-MEK-p, rabbit anti-MEK1/2, rabbit anti-GSK3β rabbit anti-LRP6, rabbit anti-LRP6-phospho (Cell signaling), mouse anti-β-catenin (Invitrogen).
Method for phosphorylated MEK: as §2

Turning to `O=C1Nc2cc(Br)ccc2/C1=C1/Nc2ccccc2/C1=N\O` [BIO, 6-bromoindirubin-3′-oxime], the “rescue of 1-benzyl I3C induced downregulation of β-catenin, MITF-M, CDK2, BCl2” value in the assay on β-catenin is “significant rescue”.
Same read-out and setting: with `[Cl-].[Li+]` [LiCl, Lithium Chloride] the entry was “significant rescue”.
With `N#CC(=C(/N)Sc1ccccc1N)/C(C#N)=C(\N)Sc1ccccc1N` [U0126, reference compound], in the assay on CDK4, the CDK4 protein levels entry is on record as “down regulated”. Further, in the assay with MITF-M, the “MITF-M protein levels (western blot)” value is reported as “down regulated”. Further, the “phosphorylated Erk/MAPK levels” value in the assay on phosphorylated Erk/MAPK was “down regulated”.
Regarding Vemurafenib [reference compound], the MEK-P levels entry in the assay on phosphorylated MEK is recorded as “downregulated MEK-P”. The “antiproliferation in wild-type BRAF cells” value in the assay on SK-MEL-2 cells is recorded as “ineffective”. Besides, the CDK4 protein levels result in the assay with CDK4 is “down regulated”. In addition, the “MITF-M protein levels (western blot)” value in the assay with MITF-M was “down regulated”. For the same molecule, the “sensitivity of MITF-M inhibition to Vemurafenib” value with MITF-M (SK-MEL-2 cells (wild-type BRAF), 10 μM Vemurafenib, 24 hours) is “not sensitive to Vemurafenib action”. Moreover, in the assay with phosphorylated Erk/MAPK, the “phosphorylated Erk/MAPK levels” value is recorded as “down regulated”.
